In the NIST ThermoML archive (doi:10.1016/j.jct.2018.02.022):
± gives the expanded uncertainty stated by the source.

Experiment: xn = mol fraction of the nth substance listed
Conditions: 92.3 kPa, Liquid; for viscosity: Concentric cylinders viscometry; for speed of sound: Frequency=3 MHz, Single path-length method; for mass density: Vibrating tube method

OCCOCCOCCO [triethylene glycol] + O
Conditions	mass density, 293.15 K [kg/m3]	mass density, 298.15 K [kg/m3]	speed of sound, 293.15 K [m/s]	speed of sound, 298.15 K [m/s]	viscosity, 293.15 K [mPa·s]	viscosity, 298.15 K [mPa·s]
x1 = 0.0101	1009.83 ± 3.2	1008.38 ± 3.2	1526.7 ± 1.8	1537.4 ± 1.8	–	–
x1 = 0.0196	1019.71 ± 3.2	1017.88 ± 3.2	1563.3 ± 1.8	1571 ± 1.8	–	–
x1 = 0.025	1024.91 ± 3.2	1023.1 ± 3.2	–	–	1.881 ± 0.26	1.524 ± 0.21
x1 = 0.029	1028.88 ± 3.2	1027.04 ± 3.2	1595.7 ± 1.8	1600.5 ± 1.8	–	–
x1 = 0.0381	1036.74 ± 3.2	1034.7 ± 3.2	1622.5 ± 1.8	1625 ± 1.8	–	–
x1 = 0.0489	1044.89 ± 3.3	1042.58 ± 3.3	–	–	2.921 ± 0.41	2.329 ± 0.33
x1 = 0.0496	1045.76 ± 3.3	1043.48 ± 3.3	1651.6 ± 1.8	1651.4 ± 1.8	–	–
x1 = 0.0601	1053.18 ± 3.3	1050.7 ± 3.3	1673.8 ± 1.8	1671.4 ± 1.8	–	–
x1 = 0.0689	1058.69 ± 3.3	1056.05 ± 3.3	1689 ± 1.8	1685.1 ± 1.8	–	–
x1 = 0.0754	1062.23 ± 3.3	1059.51 ± 3.3	–	–	4.368 ± 0.61	3.456 ± 0.48
x1 = 0.0801	1065 ± 3.3	1062.2 ± 3.3	1704.9 ± 1.8	1699.4 ± 1.8	–	–
x1 = 0.0905	1070.23 ± 3.3	1067.29 ± 3.3	1716.5 ± 1.8	1709.8 ± 1.8	–	–
x1 = 0.0993	1074.35 ± 3.3	1071.33 ± 3.3	–	–	5.989 ± 0.84	4.677 ± 0.66
x1 = 0.0996	1074.38 ± 3.3	1071.33 ± 3.3	1724.7 ± 1.8	1716.9 ± 1.8	–	–
x1 = 0.1479	1090.64 ± 3.3	1087.21 ± 3.3	1744.5 ± 1.8	1733.4 ± 1.8	–	–
x1 = 0.15	1091.94 ± 3.3	1088.51 ± 3.3	–	–	10.19 ± 1.4	7.813 ± 1.1
x1 = 0.1993	1101.82 ± 3.3	1098.18 ± 3.3	–	–	14.46 ± 2	11.2 ± 1.6
x1 = 0.2004	1101.27 ± 3.3	1097.63 ± 3.3	1742 ± 1.8	1729.3 ± 1.8	–	–
x1 = 0.2462	1107.12 ± 3.3	1103.39 ± 3.3	1732.1 ± 1.8	1718.8 ± 1.8	–	–
x1 = 0.2526	1107.94 ± 3.3	1104.19 ± 3.3	–	–	19.41 ± 2.7	14.94 ± 2.1
x1 = 0.2998	1111.26 ± 3.3	1107.47 ± 3.3	–	–	23.57 ± 3.3	18.09 ± 2.5
x1 = 0.3004	1111.57 ± 3.3	1107.79 ± 3.3	1718.2 ± 1.8	1704.4 ± 1.8	–	–
x1 = 0.3474	1114.22 ± 3.3	1110.41 ± 3.3	1706.1 ± 1.8	1692.1 ± 1.8	–	–
x1 = 0.3539	1113.94 ± 3.3	1110.13 ± 3.3	–	–	27.83 ± 3.9	21.31 ± 3
x1 = 0.3948	1116.15 ± 3.3	1112.33 ± 3.3	1694.8 ± 1.9	1680.7 ± 1.9	–	–
x1 = 0.4009	1115.83 ± 3.3	1112.01 ± 3.3	–	–	31.2 ± 4.4	23.85 ± 3.3
x1 = 0.4467	1117.71 ± 3.3	1113.88 ± 3.3	1683.9 ± 1.9	1669.6 ± 1.9	–	–
x1 = 0.4492	1117.53 ± 3.3	1113.7 ± 3.3	–	–	34.1 ± 4.8	26.05 ± 3.6
x1 = 0.4992	1119.04 ± 3.3	1115.2 ± 3.3	–	–	36.67 ± 5.1	28.01 ± 3.9
x1 = 0.5021	1118.97 ± 3.3	1115.13 ± 3.3	1673.6 ± 1.9	1659.2 ± 1.9	–	–
x1 = 0.548	1119.77 ± 3.3	1115.93 ± 3.3	1666.3 ± 1.9	1651.9 ± 1.9	–	–
x1 = 0.5484	1120.2 ± 3.3	1116.36 ± 3.3	–	–	38.84 ± 5.4	29.68 ± 4.2
x1 = 0.5923	1120.43 ± 3.3	1116.59 ± 3.3	1660 ± 1.9	1645.4 ± 1.9	–	–
x1 = 0.5996	1121.03 ± 3.3	1117.17 ± 3.3	–	–	40.64 ± 5.7	31.06 ± 4.4
x1 = 0.6442	1121.04 ± 3.3	1117.19 ± 3.3	1653.7 ± 1.9	1639.1 ± 1.9	–	–
x1 = 0.6506	1121.46 ± 3.3	1117.6 ± 3.3	–	–	42.15 ± 5.9	32.21 ± 4.5
x1 = 0.701	1121.62 ± 3.3	1117.76 ± 3.3	–	–	43.67 ± 6.1	33.32 ± 4.7
x1 = 0.7095	1121.66 ± 3.3	1117.81 ± 3.3	1647 ± 1.9	1632.3 ± 1.9	–	–
x1 = 0.7531	1122.03 ± 3.3	1118.17 ± 3.3	1642.9 ± 1.9	1628.1 ± 1.9	–	–
x1 = 0.7567	1121.7 ± 3.3	1117.85 ± 3.3	–	–	44.87 ± 6.3	34.32 ± 4.8
x1 = 0.7859	1122.28 ± 3.3	1118.42 ± 3.3	1640.2 ± 2	1625.3 ± 2	–	–
x1 = 0.8035	1121.91 ± 3.3	1118.05 ± 3.3	–	–	45.73 ± 6.4	34.99 ± 4.9
x1 = 0.8387	1122.62 ± 3.3	1118.75 ± 3.3	1636.5 ± 2	1621.5 ± 2	–	–
x1 = 0.8406	1122.25 ± 3.3	1118.38 ± 3.3	–	–	46.36 ± 6.5	35.51 ± 5
x1 = 0.8981	1123.02 ± 3.3	1119.14 ± 3.3	–	–	46.96 ± 6.6	35.95 ± 5
x1 = 0.9031	1123.01 ± 3.3	1119.13 ± 3.3	1632.1 ± 2	1617 ± 2	–	–
x1 = 0.9181	1123.08 ± 3.3	1119.2 ± 3.3	1631.3 ± 2	1616.2 ± 2	–	–
x1 = 0.9344	1123.16 ± 3.3	1119.28 ± 3.3	1630.5 ± 2	1615.4 ± 2	–	–
x1 = 0.9489	1123.57 ± 3.3	1119.68 ± 3.3	–	–	47.64 ± 6.7	36.46 ± 5.1
x1 = 0.9569	1123.28 ± 3.3	1119.39 ± 3.3	1629.2 ± 2	1614.1 ± 2	–	–
x1 = 0.9782	1123.37 ± 3.3	1119.48 ± 3.3	1628.1 ± 2	1612.9 ± 2	–	–
x1 = 1	1123.48 ± 3	1119.59 ± 3	1626.8 ± 2	1611.6 ± 2	48.06 ± 6.7	36.88 ± 5.2
